Measured values reported in patent US10149835B2, “Isoxazole derivatives as FXR agonists and methods of use thereof” (Enanta Pharmaceuticals, Inc., priority 2016, dated 2018).
pEC50: −log10 of the molar value.

Biological target: human FXR (NR1H4) (Homo sapiens (Human), UniProt Q96RI1)
Assay: Human FXR (NR1H4) Assay (Gal4 promoter driven luciferase reporter, Indigo Bioscience kit)
Format: cell-based
Conditions: CHO reporter cells expressing human NR1H4; for Efficacy (%): normalized to CDCA set as 100%; for pEC50: 22 hours incubation, potency ranges
Description: To a solution of compound (1) (211 mg, 0.37 mmol) in toluene (3 ml) was added dropwise triethylamine (0.10 ml, 0.74 mmol) and diphenyl phosphorazidate (0.087 ml, 0.40 mmol). The mixture was stirred at 23° C. for 1 h, at 85° C. for 3.5 h, and cooled to 23° C. A solution of N,N-dimethylsulfamide (68 mg, 0.55 mmol) in THF (0.5 mL) and DBU (83 μl, 0.55 mmol) was added. The mixture was stirred at 23° C. for 16 h, quenched with 1 M HCl, and extracted with EtOAc (2×). The combined organic layers were washed with brine and concentrated in vacuo. The residue was purified by chromatography on silica gel column eluting with hexane/acetone (100/0 to 70/30, 10 min) to provide Example 7. Assays Human FXR (NR1H4) Assay
Determination of a ligand mediated Gal4 promoter driven transactivation to quantify ligand binding mediated activation of FXR. FXR Reporter Assay kit purchased from Indigo Bioscience (Catalogue number: IB00601) to determine the potency and efficacy of compound developed by Enanta that can induce FXR activation. The principle application of this reporter assay system is to quantify functional activity of human FXR. The assay utilizes non-human mammalian cells, CHO (Chinese hamster ovary) cells engineered to express human NR1H4 protein (referred to as FXR). Reporter cells also incorporate the cDNA encoding beetle luciferase which catalyzes the substrates and yields photon emission. Luminescence intensity of the reaction is quantified using a plate-reading luminometer, Envision. Reporter Cells include the luciferase reporter gene functionally linked to an FXR responsive promoter. Thus, quantifying changes in luciferase expression in the treated reporter cells provides a sensitive surrogate measure of the changes in FXR activity. […] The assay is according to the manufacturer's instructions. In brief, the assay was performed in white, 96 well plates using final volume of 100 μl containing cells with different doses of compounds. Retrieve Reporter Cells from −80° C. storage. Perform a rapid thaw of the frozen cells by transferring a 10 ml volume of 37° C. cell recovery medium into the tube of frozen cells. Recap the tube of Reporter Cells and immediately place it in a 37° C. water bath for 5-10 minutes. Retrieve the tube of Reporter Cell Suspension from the water bath. Sanitize the outside surface of the tube with a 70% alcohol swab, and then transfer it into the cell culture hood. Dispense 90 μl of cell suspension into each well of the 96-well Assay Plate. Transfer the plate into 37° C. incubator, allowing the cells adherent to the bottom of the well. Dilute compounds in Dilution Plate (DP), and administrate to cells at Assay Plate (AP). DMSO content of the samples was kept at 0.2%. Cells were incubated for additional 22 hours before luciferase activities were measured. Thirty minutes before intending to quantify FXR activity, remove Detection Substrate and Detection Buffer from the refrigerator and place them in a low-light area so that they may equilibrate to room temperature. Remove the plate's lid and discard all media contents by ejecting it into an appropriate waste container. Gently tap the inverted plate onto a clean absorbent paper towel to remove residual droplets. Cells will remain tightly adhered to well bottoms. Add 100 μl of luciferase detection reagent to each well of the assay plate. Allow the assay plate to rest at room temperature for at least 5 minutes following the addition of LDR. Set the instrument (Envision) to perform a single 5 second “plate shake” prior to reading the first assay well. Read time may be 0.5 second (500 mSec) per well.

human FXR (NR1H4), sequence (Q96RI1 whole entry, the tested form may be a part): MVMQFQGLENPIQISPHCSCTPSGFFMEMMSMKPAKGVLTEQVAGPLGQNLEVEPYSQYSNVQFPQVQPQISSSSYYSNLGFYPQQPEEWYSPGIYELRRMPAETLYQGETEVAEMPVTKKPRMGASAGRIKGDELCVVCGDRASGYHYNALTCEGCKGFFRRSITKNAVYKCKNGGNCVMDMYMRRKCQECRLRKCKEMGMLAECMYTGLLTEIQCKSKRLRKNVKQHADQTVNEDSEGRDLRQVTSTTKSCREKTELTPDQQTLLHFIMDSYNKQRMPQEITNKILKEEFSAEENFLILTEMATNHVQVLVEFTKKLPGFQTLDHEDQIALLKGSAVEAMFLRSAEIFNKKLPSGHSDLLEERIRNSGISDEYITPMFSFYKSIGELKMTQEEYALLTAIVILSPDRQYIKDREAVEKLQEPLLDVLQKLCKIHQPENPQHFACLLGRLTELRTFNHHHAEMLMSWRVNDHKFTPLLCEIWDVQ

Row | SMILES | Efficacy (%) | pEC50
1 | CN(C)S(=O)(=O)NC(=O)c1ccc2nc(N3C4CC[C@H]3C[C@H](OCc3c(-c5c(Cl)cccc5Cl)noc3C3CC3)C4)sc2c1 [Example 1] | 204 | 
2 | O=C(NS(=O)(=O)C1CC1)c1ccc2nc(N3C4CC[C@H]3CC(OCc3c(-c5c(Cl)cccc5Cl)noc3C3CC3)C4)sc2c1 (some centres unmarked) [Example 2] | 204 | > 7.00
3 | CC(C)(C)c1ccc(S(=O)(=O)NC(=O)c2ccc3nc(N4C5CC[C@H]4CC(OCc4c(-c6c(Cl)cccc6Cl)noc4C4CC4)C5)sc3c2)cc1 (some centres unmarked) [Example 3] | 226 | > 7.00
4 | CN(C)S(=O)(=O)NC(=O)c1ccc(N2C3CC[C@H]2CC(OCc2c(-c4c(Cl)cccc4Cl)noc2C2CC2)C3)c(F)c1 (some centres unmarked) [Example 4] | 174 | > 7.00
5 | CC(C)(C)c1ccc(S(=O)(=O)NC(=O)c2ccc(N3C4CC[C@H]3CC(OCc3c(-c5c(Cl)cccc5Cl)noc3C3CC3)C4)c(F)c2)cc1 (some centres unmarked) [Example 5] | 168 | > 7.00
6 | O=C(NS(=O)(=O)C1CC1)c1ccc(N2C3CC[C@H]2CC(OCc2c(-c4c(Cl)cccc4Cl)noc2C2CC2)C3)c(F)c1 (some centres unmarked) [Example 6] | 170 | > 7.00
